In data set [1] the test system is SCC12 cells. The data set can be described thus: Cell confluence by Incucyte image analysis, SCC12 cells. In kind it is cell-based, human. The following applies: 2 μM, 21 hours. The method, then: (§1) All results are shown as mean ± standard error of n = 3 independent replicates. […] Readings were compared to the Alamar Blue metabolism in DMSO treated cells that were used as the viability standard of 100% for each replicate experiment. […] (F) Number of invading cells was determined in 5 random fields for each condition for each separate replicate experiment. All results are shown as mean ± standard error of n ≥ 3 independent replicates.
(§2) MDA MB 231 or SCC12 cells were plated in a 96 well plate and cultured for 24 hours. […] Pictures were taken every 3 hours and confluence was measured using the IncuCyte analysis software. AlamarBlue (Invitrogen, DAL 1025) was added to the medium and the cells were cultured for an additional day. Absorbances at 570 nm and at 600 nm were measured to assess cell health.

Data set [2] has as its system SCC12 cells. The data set can be described thus: Alamar Blue cell viability, SCC12 cells. In kind it is cell-based, human. As to conditions: 2 μM, 24 hours. The method, then: as §1, §2
A general note: The colour change of resazurin is a common sign of viable cells or microbes.

Data set [3] deals with MDA MB 231 cells. The data set can be described thus: Alamar Blue cell viability, MDA-MB-231 cells. In kind it is cell-based, human. As to conditions: 24 hours. On the procedure: (§3) (A) MDA-MB-231 human breast cancer cells were plated in 96 well plates, then 24 hours later a ~800 μm scratch wound was created. […] All results are shown as mean ± standard error of n ≥ 4 independent replicates. […] Readings were compared to the Alamar Blue metabolism in DMSO treated cells that were used as the viability standard of 100% for each replicate experiment. All results are shown as mean ± standard error of 3 independent replicates.
(§4) MDA-MB-231 cells were plated at 30,000 cells per well in Image Lock 96 well plates (Essen BioScience) in 100 μL complete DMEM medium and after allowing cells to settle for 20 min were incubated overnight at 37°C in 5% CO2 in a humidified incubator. Matrigel (BD Biosciences) was thawed overnight at 4°C, diluted 1:1 with PBS and 100 μL pipetted over cells that had been scratched with the WoundMaker tool (Essen BioScience). Plates were incubated for 1 h, then appropriately diluted drugs added in 100 μL media to achieve final concentrations. Plates were scanned with an Incucyte Zoom (Essen BioSciences) according to manufacturer’s instructions at 3 hour intervals. Cell viability was determined with AlamarBlue (Invitrogen, DAL 1025), which was added to the medium and cells cultured for 6 hours. Absorbances at 570 nm and at 600 nm were measured to assess metabolic activity.
as §2

Data set [4] relates to MDA-MB-231 cells. The data set can be described thus: Matrigel invasion (scratch wound closure, Incucyte) of MDA-MB-231 cells. The format is cell-based, human. The method, then:
as §3, §4

Data set [5] has as its target T1, PhKγ2 (Homo sapiens, UniProt P15735).
T1 construct: purchased Eurofins
T1 sequence (P15735 1-406): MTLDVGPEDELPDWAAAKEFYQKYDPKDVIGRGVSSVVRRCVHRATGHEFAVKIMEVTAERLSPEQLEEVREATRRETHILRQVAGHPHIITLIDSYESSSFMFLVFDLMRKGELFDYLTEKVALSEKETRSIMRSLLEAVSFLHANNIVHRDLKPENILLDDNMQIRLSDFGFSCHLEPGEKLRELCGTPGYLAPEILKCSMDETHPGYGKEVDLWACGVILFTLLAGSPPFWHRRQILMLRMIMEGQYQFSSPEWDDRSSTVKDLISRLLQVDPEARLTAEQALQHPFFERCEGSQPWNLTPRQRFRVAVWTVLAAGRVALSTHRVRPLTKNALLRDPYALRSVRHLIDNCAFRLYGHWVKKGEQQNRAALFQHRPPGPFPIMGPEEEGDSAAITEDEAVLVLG
The data set can be described thus: Kinase selectivity profiling (Eurofins), PhKγ2. The format is biochemical. An excerpt: The results of this screening were mapped over the annotated human kinome phylogenetic tree using Kinome Render (Figure 2).
Kinases inhibited less than 25% have their names in green text. Kinases inhibited >25% and ≤50% have yellow circles, >50% and ≤75% have orange circles, and >75% have red circles. In each case, the size of the circle is proportional to the percentage inhibition. ROCK1 and MRCKα positions are indicated on the tree for orientation purposes. Illustration reproduced courtesy of Cell Signaling Technology, Inc. (www.cellsignal.com).
MRCKα, MRCKβ, ROCK1 and ROCK2 assays were performed using an IMAP fluorescence polarization assay format (Molecular Devices Inc.). 8–12 nM of each kinase (Life Technologies) was incubated for 60 min at room temperature with 100 nM FAM-S6-ribosomal protein derived peptide (synthesized by Alta Biosciences, University of Birmingham UK) in the presence of 1 μM ATP and 0.5 mM MgCl2 in 20 mM Tris buffer (pH 7.4) containing 0.01% Tween-20 and 1 mM DTT (MRCKα and β); or 1 μM ATP, 10 mM MgCl2 in 20 mM Tris buffer (pH 7.5) containing 0.25 mM EGTA 0.01% Triton X-100 and 1 mM DTT (ROCK1 and ROCK2). […] After 30 min incubation to allow binding reagent to bind phosphorylated peptide, fluorescence polarization was measured on a Tecan Saphire^2 plate reader at excitation (470 nm) and emission (530 nm) wavelengths. […]

The subject of data set [6] is MLC phosphorylation in SCC12 cells. The data set can be described thus: MLC phosphorylation in SCC12 squamous cell carcinoma cells (quantitative western blot). The format is cell-based, human. The method, then: as §1
Cell lysates were prepared as described previously. For pMLC western blots, cells were lysed in a 1% (w/v) SDS, 50 mM Tris pH 7.5 buffer and lysates were passed through QIAshredder columns (Qiagen, 79654). Alternatively, for pMLC western blots lysates were prepared in lysis buffer with 50 mM Tris (pH7.5), 0.5% (w/v) SDS, supplemented with Complete Protease and PhosSTOP inhibitors (Roche). Whole cell lysates were separated by SDS-PAGE, transferred to Protran nitrocellulose membranes (Whatman), probed with primary antibodies and appropriate IR dye-conjugated secondary antibodies. Blots were visualized using a Licor Odyssey according to manufacturer’s instructions. […]
On the technique in general: A western blot detects proteins with antibodies after separation by electrophoresis.

pEC50: −log10 of the molar value.

As to `O=C(Nc1cn[nH]c1-c1ccccn1)c1nn(C2CCNCC2)cc1Cl` [BDP5290, 4-chloro-1-(4-piperidyl)-N-[5-(2-pyridyl)-1H-pyrazol-4-yl]pyrazole-3-carboxamide], the cell confluence entry in data set [1] is “did not significantly differ between treatments”. Besides, the “cell viability (Alamar Blue metabolism) versus DMSO” value in data set [2] is on record as “did not differ from DMSO standard values”. The “effect on cell viability” value in data set [3] (1 μM) is given as “no effect on cell viability”. Moreover, the negative logarithm of the EC50 (pEC50) – broadly, −log10 of the EC50, conventionally taken in molar units – is < 5.00 in data set [3] (Homo sapiens, MDA-MB-231, read-out: EC50, cell viability (Alamar Blue metabolism)) and 6.36 in data set [4] (Homo sapiens, MDA-MB-231, 24 h, read-out: EC50, inhibition of Matrigel invasion (wound closure)). Further, the “inhibition of MDA-MB-231 invasion” value in data set [4] (10 μM) is recorded as “virtually complete inhibition”. For the same compound, the inhibition (commonly the drop in the measured response relative to a control, in per cent) at 1 µM in data set [4] (Homo sapiens, MDA-MB-231, 1 μM) is > 60%. The inhibition at 10 µM in data set [5] was > 75%.

As to `C[C@@H](N)[C@H]1CC[C@H](C(=O)Nc2ccncc2)CC1` [Y27632, reference compound], the cell confluence entry in data set [1] was “did not significantly differ between treatments”. In addition, the “cell viability (Alamar Blue metabolism) versus DMSO” value in data set [2] was “did not differ from DMSO standard values”. Moreover, in data set [3] (10 μM), the “effect on cell viability” value was “no effect on cell viability”. For the same compound, in data set [4] (10 μM), the “inhibition of wound closure” value was ~ 40%. Besides, in data set [4] (30 μM, 24 h), the inhibition of invasion is ≤ 50%. In data set [6], the “phosphorylated MLC at higher doses in SCC12 cells” value is “residual phosphorylated MLC”.

The values are drawn from article PMC4195943, “A novel small-molecule MRCK inhibitor blocks cancer cell invasion” (Cell Communication and Signaling : CCS, 2014).
